Reference: ChEMBL document CHEMBL3872220, “Amphiphilic xanthones as a potent chemical entity of anti-mycobacterial agents with membrane-targeting properties” (Eur J Med Chem, 2016)
Converted amounts (≈) assume the structure as drawn. The source made the active and inactive calls. The calls are words filed in the database; no cut-off is given here.

Legend:
[1] = Hemolytic activity against New Zealand white rabbit RBC assessed as hemoglobin release measured after 1 hr; type: ADME, cell-based, Oryctolagus cuniculus, Erythrocyte; details: red blood cells
[2] = test system: Mycobacterium tuberculosis; assay: Antimycobacterial activity against Mycobacterium tuberculosis clinical isolate 01;057 assessed as reduction in 2 log10 bacterial colonies measured after 14 to 21 days by agar dilution method; type: functional
[3] = test system: Mycobacterium tuberculosis; assay: Antimycobacterial activity against Mycobacterium tuberculosis clinical isolate 01;064 assessed as reduction in 2 log10 bacterial colonies measured after 14 to 21 days by agar dilution method; type: functional
[4] = test system: Mycobacterium tuberculosis; assay: Antimycobacterial activity against Mycobacterium tuberculosis clinical isolate 01;087 assessed as reduction in 2 log10 bacterial colonies measured after 14 to 21 days by agar dilution method; type: functional
[5] = test system: Mycobacterium tuberculosis; assay: Antimycobacterial activity against Mycobacterium tuberculosis H37Rv ATCC 27294 assessed as reduction in 2 log10 bacterial colonies measured after 14 to 21 days by agar dilution method; type: functional
[6] = test system: Mycolicibacterium smegmatis; assay: Bactericidal activity against Mycobacterium smegmatis MC2 155 assessed as log reduction in bacterial colonies at 4 times MIC measured after 24 hrs by time-kill assay; type: functional, str. MC2 155
[7] = Selectivity index, ratio of CC50 for human corneal fibroblasts assessed as reduction in ATP level to MIC90 for Mycobacterium smegmatis MC2 155
[8] = test system: Mycolicibacterium smegmatis; assay: Induction of membrane disruption in Mycobacterium smegmatis MC2 155 assessed as increased cytoplasmic membrane permeability at 60 uM up to 3 hrs by Sytox green uptake assay; type: functional; details: str. MC2 155
Lipid bilayer [9] = assay: Induction of membrane damage in CI/DOPG/DOPI large unilamellar vesicles assessed as calcein leakage at 1:4 compound to lipid ratio by fluorescence based […] assay relative to control
Lipid bilayer [10] = assay: Induction of membrane damage in CI/DOPG/DOPI large unilamellar vesicles assessed as calcein leakage at 1:8 compound to lipid ratio by fluorescence based […] assay relative to control
[11] = test system: Mycolicibacterium smegmatis; assay: Induction of membrane integrity impairment in Mycobacterium smegmatis MC2 155 at 2 to 4 times MIC measured after 3 hrs by SYTO-9/propium iodide staining based Baclight assay relative to control; type: functional, str. MC2 155
[12] = test system: Mycolicibacterium smegmatis; assay: Bactericidal activity against Mycobacterium smegmatis MC2 155 measured after 2 days by time-kill assay; type: functional; details: str. MC2 155
[13] = test system: Mycolicibacterium smegmatis; assay: Bactericidal activity against Mycobacterium smegmatis MC2 155 assessed as log reduction in bacterial colonies at 2 times MIC measured after 6 hrs by time-kill assay; type: functional, str. MC2 155
[14] = test system: Mycolicibacterium smegmatis; assay: Bactericidal activity against Mycobacterium smegmatis MC2 155 assessed as log reduction in bacterial colonies at 4 times MIC measured after 3 hrs by time-kill assay; type: functional, str. MC2 155
[15] = test system: Mycolicibacterium smegmatis; assay: Bactericidal activity against Mycobacterium smegmatis MC2 155 assessed as log reduction in bacterial colonies at 2 times MIC measured after 3 hrs by time-kill assay; type: functional, str. MC2 155
[16] = test system: Mycolicibacterium smegmatis; assay: Bactericidal activity against Mycobacterium smegmatis MC2 155 assessed as log reduction in bacterial colonies at 3.2 uM measured after 6 hrs by time-kill assay; type: functional, str. MC2 155
[17] = test system: Mycolicibacterium smegmatis; assay: Induction of membrane integrity impairment in Mycobacterium smegmatis MC2 155 at 2 times MIC by SYTO-9/propium iodide staining based Baclight assay relative to control; type: functional, str. MC2 155
[18] = test system: Mycolicibacterium smegmatis; assay: Induction of impaired membrane integrity in Mycobacterium smegmatis MC2 155 assessed as reduction in membrane integrity at MIC by SYTO-9/propium iodide stain based Baclight assay relative to control; type: functional, str. MC2 155; set-up: scale not given: the % may be the effect or the level left
Lipid bilayer [19] = assay: Induction of membrane damage in CI/DOPG/DOPI large unilamellar vesicles assessed as calcein leakage at lower compound to lipid ratio by fluorescence based […] assay relative to control
[20] = Tmax in Sprague-Dawley rat at 2 mg/kg administered via oral gavage measured by LC-MS/MS method; type: ADME, organism-based; details: in vivo
[21] = AUC (0 to infinity) in Sprague-Dawley rat at 2 mg/kg, iv administered as single bolus dose measured by LC-MS/MS method; type: ADME, organism-based; set-up: dose 2 mg/kg, route intravenous, time infinity; details: in vivo
[22] = AUC (0 to infinity) in Sprague-Dawley rat at 2 mg/kg, administered via oral gavage measured by LC-MS/MS method; type: ADME, organism-based; set-up: dose 2 mg/kg, time infinity, route oral; details: in vivo
[23] = Cmax in Sprague-Dawley rat at 2 mg/kg, iv administered as single bolus dose measured by LC-MS/MS method; type: ADME, organism-based; set-up: dose 2 mg/kg, route intravenous; details: in vivo
[24] = Cmax in Sprague-Dawley rat at 2 mg/kg administered via oral gavage measured by LC-MS/MS method; type: ADME, organism-based; set-up: dose 2 mg/kg, route oral; details: in vivo
[25] = Terminal half life in Sprague-Dawley rat at 2 mg/kg, iv administered as single bolus dose measured by LC-MS/MS method; type: ADME, organism-based; details: in vivo, read-out: beta t1/2 (converted)
[26] = Terminal half life in Sprague-Dawley rat at 2 mg/kg administered via oral gavage measured by LC-MS/MS method; type: ADME, organism-based; details: in vivo, read-out: beta t1/2 (converted)
[27] = Volume of distribution in Sprague-Dawley rat at 2 mg/kg, iv administered as single bolus dose measured by LC-MS/MS method; type: ADME, organism-based; details: in vivo
[28] = Clearance in Sprague-Dawley rat at 2 mg/kg, iv administered as single bolus dose measured by LC-MS/MS method; type: ADME, organism-based; details: in vivo
[29] = Oral bioavailability in Sprague-Dawley rat at 2 mg/kg measured by LC-MS/MS method; type: ADME, organism-based; details: in vivo

COc1c(OCCCCN2CCOCC2)cc2oc3cc(OCCCCN4CCOCC4)c(CC=C(C)C)c(O)c3c(=O)c2c1CC=C(C)C
HC50 at 1 h [1]: > 289 µM | MIC [2]: 4 µg/mL (≈ 5.77 µM) | MIC [3]: 4 µg/mL (≈ 5.77 µM) | MIC [4]: 8 µg/mL (≈ 11.5 µM) | MIC [5]: 4 µg/mL (≈ 5.77 µM) | Activity [6]: 2.4 | Selectivity Index [7]: 15 - 40

CCN(CC)CCCCOc1cc2oc3cc(OCCCCN(CC)CC)c(OC)c(CC=C(C)C)c3c(=O)c2c(O)c1CC=C(C)C
MIC [2]: 4 µg/mL (≈ 6.02 µM) | MIC [3]: 8 µg/mL (≈ 12 µM) | MIC [4]: 8 µg/mL (≈ 12 µM) | MIC [5]: 2 µg/mL (≈ 3.01 µM) | Activity [8]: Active | Activity (Lipid bilayer [9]): 23.4% | Activity (Lipid bilayer [10]): 14.6% | Activity [11]: >80%

CCCN(CCC)CCCCOc1cc2oc3cc(OCCCCN(CCC)CCC)c(OC)c(CC=C(C)C)c3c(=O)c2c(O)c1CC=C(C)C
HC50 at 1 h [1]: > 277 µM | Activity [12]: Dose-dependent effect | Activity [13]: 4.15 | Activity [14]: 4.15 | Activity [15]: 2.85 | Activity [16]: 1.6 | Activity [17]: 78.8% | Activity [18]: 28% | Activity (Lipid bilayer [19]): < 10% | Tmax [20]: 4 h | AUC [21]: 22.78 µg·h/mL | AUC(0-inf) [22]: 3300 ng·h/mL | Cmax [23]: 1500 ng/mL | Cmax [24]: 320 ng/mL | half-life [25]: 596 min | half-life [26]: 287 min | Vd [27]: 1.28 L/kg | CL [28]: 1.48 L/h/kg | bioavailability [29]: 14 to 15% | Selectivity Index [7]: 15 - 40 | Activity [11]: >80%
